In this assay the target is T1, F508del (Homo sapiens, UniProt P13569, DEL508-508).
T1 construct: expressed in transfected cells
The assay is described as follows: Protocol 1: membrane potential optical assay (FLIPR III, voltage sensing dye), identification of potentiator compounds. Particulars: Table 3, compounds of Table 1. Format: cell-based. The essentials: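 Membrane potential in forskolin-activated, temperature-rescued F508del NIH 3T3 cells is followed with a voltage-sensing dye on FLIPR III. A chloride ion gradient created at the single addition step provides the driving force, after prior compound treatment.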

T1 sequence (P13569 with tags, fused parts or gaps DEL508-508): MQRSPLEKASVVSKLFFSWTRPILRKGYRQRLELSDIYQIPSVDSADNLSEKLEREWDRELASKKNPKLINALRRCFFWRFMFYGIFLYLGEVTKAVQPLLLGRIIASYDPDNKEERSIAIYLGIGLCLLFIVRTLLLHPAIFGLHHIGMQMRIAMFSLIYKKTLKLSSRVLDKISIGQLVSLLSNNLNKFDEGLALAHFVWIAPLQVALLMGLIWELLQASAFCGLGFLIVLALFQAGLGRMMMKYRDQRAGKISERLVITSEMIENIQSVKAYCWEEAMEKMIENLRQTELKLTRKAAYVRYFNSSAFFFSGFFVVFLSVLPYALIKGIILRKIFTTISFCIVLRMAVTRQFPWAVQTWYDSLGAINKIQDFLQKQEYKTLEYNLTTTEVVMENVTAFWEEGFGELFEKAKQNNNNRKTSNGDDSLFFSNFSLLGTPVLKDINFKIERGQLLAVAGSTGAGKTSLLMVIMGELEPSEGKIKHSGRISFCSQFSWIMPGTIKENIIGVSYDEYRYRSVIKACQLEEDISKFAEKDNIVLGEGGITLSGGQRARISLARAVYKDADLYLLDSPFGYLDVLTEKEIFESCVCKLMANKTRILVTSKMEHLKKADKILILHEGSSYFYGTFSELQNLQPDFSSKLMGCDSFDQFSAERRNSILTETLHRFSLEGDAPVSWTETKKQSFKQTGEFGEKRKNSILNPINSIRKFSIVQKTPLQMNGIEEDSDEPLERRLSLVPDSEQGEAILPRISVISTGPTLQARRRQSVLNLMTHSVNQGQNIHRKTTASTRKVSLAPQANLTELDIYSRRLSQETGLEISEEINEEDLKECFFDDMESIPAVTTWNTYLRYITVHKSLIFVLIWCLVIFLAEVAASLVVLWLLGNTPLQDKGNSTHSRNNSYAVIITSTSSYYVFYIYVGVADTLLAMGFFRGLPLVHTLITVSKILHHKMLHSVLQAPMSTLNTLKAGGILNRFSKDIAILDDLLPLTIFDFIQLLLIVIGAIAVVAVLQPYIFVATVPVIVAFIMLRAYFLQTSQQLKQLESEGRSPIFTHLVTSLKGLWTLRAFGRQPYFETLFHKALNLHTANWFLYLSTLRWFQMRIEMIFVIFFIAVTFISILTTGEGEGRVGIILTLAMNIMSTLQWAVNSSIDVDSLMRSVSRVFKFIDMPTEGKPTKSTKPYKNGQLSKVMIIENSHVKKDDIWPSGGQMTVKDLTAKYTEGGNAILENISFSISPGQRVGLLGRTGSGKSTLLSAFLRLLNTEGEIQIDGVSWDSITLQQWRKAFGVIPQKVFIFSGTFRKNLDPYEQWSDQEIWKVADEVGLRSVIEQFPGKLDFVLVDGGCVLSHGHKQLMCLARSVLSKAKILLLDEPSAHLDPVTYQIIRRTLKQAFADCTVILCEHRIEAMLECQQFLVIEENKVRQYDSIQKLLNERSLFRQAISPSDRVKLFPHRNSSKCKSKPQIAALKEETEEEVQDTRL

For the molecule `C[C@@H]1CN(c2nc(-c3cc(F)ccc3F)ccc2C(=O)NS(=O)(=O)c2ccc[nH]c2=O)C(C)(C)C1` [Compound 1954, 6-(2,5-difluorophenyl)-N-[(2-oxo-1H-pyridin-3-yl)sulfonyl]-2-[(4S)-2,2,4-trimethylpyrrolidin-1-yl]pyridine-3-carboxamide], the EC30 entry was “+++ (“+++” means <3 uM)”.

`Cc1ccc(C)c(-c2ccc(C(=O)NS(=O)(=O)c3ccc[nH]c3=O)c(N3C[C@@H](C)CC3(C)C)n2)c1` [Compound 1990, 6-(2,5-dimethylphenyl)-N-[(2-oxo-1H-pyridin-3-yl)sulfonyl]-2-[(4S)-2,2,4-trimethylpyrrolidin-1-yl]pyridine-3-carboxamide]: the EC30 entry was “+++ (“+++” means <3 uM)”.

For the molecule `Cc1cccc(-c2ccc(C(=O)NS(=O)(=O)c3cccnc3N)c(N3C[C@@H](C)CC3(C)C)n2)c1` [Compound 1829, N-[(2-amino-3-pyridyl)sulfonyl]-6-(m-tolyl)-2-[(4S)-2,2,4-trimethylpyrrolidin-1-yl]pyridine-3-carboxamide], the EC30 entry is “+++ (“+++” means <3 uM)”.

On to `CC(C)COc1cc(F)cc(-c2ccc(C(=O)NS(=O)(=O)c3ccn[nH]3)c(N3CCCC(F)C3)n2)c1` (stereo not drawn) [Compound 878, 6-(3-fluoro-5-isobutoxy-phenyl)-2-(3-fluoro-1-piperidyl)-N-(1H-pyrazol-5-ylsulfonyl)pyridine-3-carboxamide], for which the EC30 entry is “++ (“++” means between 3 uM and 10 uM)”.

For `Cc1cc(C)c(Oc2nc(-c3ccc4c(cnn4C)c3)ccc2C(=O)NS(=O)(=O)c2cccc(N)n2)c(C)c1` [Compound 1276, N-[(6-amino-2-pyridyl)sulfonyl]-6-(1-methylindazol-5-yl)-2-(2,4,6-trimethylphenoxy)pyridine-3-carboxamide], the EC30 entry was “++ (“++” means between 3 uM and 10 uM)”.

For `CC(C)Oc1ccc(-c2ccc(C(=O)NS(=O)(=O)c3cccnc3N)c(N3C[C@@H](C)CC3(C)C)n2)cc1` [Compound 1903, N-[(2-amino-3-pyridyl)sulfonyl]-6-(4-isopropoxyphenyl)-2-[(4S)-2,2,4-trimethylpyrrolidin-1-yl]pyridine-3-carboxamide], the EC30 entry is recorded as “+++ (“+++” means <3 uM)”.

With `CC(C)COc1cc(F)cc(-c2ccc(C(=O)NS(=O)(=O)c3cccc(N)n3)c(OC3CC3)n2)c1` [Compound 1446, N-[(6-amino-2-pyridyl)sulfonyl]-2-(cyclopropoxy)-6-(3-fluoro-5-isobutoxy-phenyl)pyridine-3-carboxamide], the EC30 result is on record as “+++ (“+++” means <3 uM)”.

As for `CCOc1cccc2c1CN(Cc1c(C)cc(C)cc1C)[C@]2(C)C(=O)NS(=O)(=O)c1cccc(N)n1` [Compound 1372, (1S)—N-[(6-amino-2-pyridyl)sulfonyl]-4-ethoxy-1-methyl-2-[(2,4,6-trimethylphenyl)methyl]isoindoline-1-carboxamide], the EC30 entry was “+++ (“+++” means <3 uM)”.

With `Cc1cc(C)c(Oc2nc(-c3ccc(OCc4ccccc4)cc3F)ccc2C(=O)NS(=O)(=O)c2cccc(N)n2)c(C)c1` [Compound 1113, N-[(6-amino-2-pyridyl)sulfonyl]-6-(4-benzyloxy-2-fluoro-phenyl)-2-(2,4,6-trimethylphenoxy)pyridine-3-carboxamide], the EC30 entry is reported as “+++ (“+++” means <3 uM)”.

For the molecule `CC(C)COc1ccn(-c2ccc(C(=O)NS(=O)(=O)c3ccc[nH]c3=O)c(N3C[C@@H](C)CC3(C)C)n2)n1` [Compound 1896, 6-(3-isobutoxypyrazol-1-yl)-N-[(2-oxo-1H-pyridin-3-yl)sulfonyl]-2-[(4S)-2,2,4-trimethylpyrrolidin-1-yl]pyridine-3-carboxamide], the EC30 result is given as “+++ (“+++” means <3 uM)”.

With `CCOc1ccc(C)cc1-c1ccc(C(=O)NS(=O)(=O)c2cccnc2N)c(N2C[C@@H](C)CC2(C)C)n1` [Compound 1964, N-[(2-amino-3-pyridyl)sulfonyl]-6-(2-ethoxy-5-methyl-phenyl)-2-[(4S)-2,2,4-trimethylpyrrolidin-1-yl]pyridine-3-carboxamide], the EC30 result is given as “+++ (“+++” means <3 uM)”.

Take `CC(C)COc1cc(F)cc(-c2ccc(C(=O)NS(=O)(=O)c3cccc(N)n3)c(N3CCOCC3(C)C)n2)c1` [Compound 1267, N-[(6-amino-2-pyridyl)sulfonyl]-2-(3,3-dimethylmorpholin-4-yl)-6-(3-fluoro-5-isobutoxy-phenyl)pyridine-3-carboxamide]: the EC30 entry is on record as “+++ (“+++” means <3 uM)”.

As to `CC(C)Oc1ccn(-c2ccc(C(=O)NS(=O)(=O)c3cccc(N)n3)c(N3C[C@@H](C)CC3(C)C)n2)n1` [Compound 1709, N-[(6-amino-2-pyridyl)sulfonyl]-6-(3-isopropoxypyrazol-1-yl)-2-[(4S)-2,2,4-trimethylpyrrolidin-1-yl]pyridine-3-carboxamide], the EC30 result is given as “+++ (“+++” means <3 uM)”.

`CC(C)COc1cc(F)cc(-c2ccc(C(=O)NS(=O)(=O)c3cccnc3N)c(N3C[C@H](C)CC3(C)C)n2)c1` [Compound 1444, N-[(2-amino-3-pyridyl)sulfonyl]-6-(3-fluoro-5-isobutoxy-phenyl)-2-[(4R)-2,2,4-trimethylpyrrolidin-1-yl]pyridine-3-carboxamide]: the EC30 entry is reported as “+++ (“+++” means <3 uM)”.

Take `Cc1cc(C)cc(-c2ccc(C(=O)NS(=O)(=O)N3CC[C@H](N)C3)c(N3C[C@@H](C)CC3(C)C)n2)c1` [Compound 1839, N-[(3S)-3-aminopyrrolidin-1-yl]sulfonyl-6-(3,5-dimethylphenyl)-2-[(4S)-2,2,4-trimethylpyrrolidin-1-yl]pyridine-3-carboxamide]: the EC30 result was “+++ (“+++” means <3 uM)”.

As for `C[C@@H]1CN(c2nc(C3CCOC3)ccc2C(=O)NS(=O)(=O)c2cccc(N)n2)C(C)(C)C1` (stereo partly drawn) [Compound 1534, N-[(6-amino-2-pyridyl)sulfonyl]-6-tetrahydrofuran-3-yl-2-[(4S)-2,2,4-trimethylpyrrolidin-1-yl]pyridine-3-carboxamide], the EC30 entry is “++ (“++” means between 3 uM and 10 uM)”.

`CC(C)COc1cc(F)cc(-c2ccc(C(=O)NS(=O)(=O)c3cccc(N)n3)c(N3CCCC(C)(C)C3)n2)c1` [Compound 887, N-[(6-amino-2-pyridyl)sulfonyl]-2-(3,3-dimethyl-1-piperidyl)-6-(3-fluoro-5-isobutoxy-phenyl)pyridine-3-carboxamide]: the EC30 result is reported as “+++ (“+++” means <3 uM)”.

Turning to `CCOC1CCCN(c2nc(-c3ccc(OC(C)C)nc3)ccc2C(=O)NS(=O)(=O)c2cccc(N)n2)C1` (stereo not drawn) [Compound 960, N-[(6-amino-2-pyridyl)sulfonyl]-2-(3-ethoxy-1-piperidyl)-6-(6-isopropoxy-3-pyridyl)pyridine-3-carboxamide], the EC30 result was “++ (“++” means between 3 uM and 10 uM)”.

For `CC(C)CCOc1cccc(-c2ccc(C(=O)NS(=O)(=O)c3cccc(N)n3)c(N3CC(C)CC3(C)C)n2)n1` (stereo not drawn) [Compound 1135, N-[(6-amino-2-pyridyl)sulfonyl]-6-(6-isopentyloxy-2-pyridyl)-2-(2,2,4-trimethylpyrrolidin-1-yl)pyridine-3-carboxamide], the EC30 result is recorded as “+++ (“+++” means <3 uM)”.

Consider `CC(C)(C)c1ccc(C(=O)NS(=O)(=O)c2cccc(N)c2)c(-c2ccc(F)c(F)c2)n1` [Compound 1217, N-(3-aminophenyl)sulfonyl-6-tert-butyl-2-(3,4-difluorophenyl)pyridine-3-carboxamide], for which the EC30 entry is given as “+ (“+” means greater than 10 uM)”.

As for `CC1CN(c2ncccc2C(=O)NS(=O)(=O)c2cccc(Oc3ccc4cccnc4c3)n2)C(C)(C)C1` (stereo not drawn) [Compound 1875, N—[[6-(7-quinolyloxy)-2-pyridyl]sulfonyl]-2-(2,2,4-trimethylpyrrolidin-1-yl)pyridine-3-carboxamide], the EC30 result was “++ (“++” means between 3 uM and 10 uM)”.

In the case of `COc1ccccc1-c1cnc(N2CC(C)CC2(C)C)c(C(=O)NS(=O)(=O)c2cccc(N)n2)c1` (stereo not drawn) [Compound 1735, N-[(6-amino-2-pyridyl)sulfonyl]-5-(2-methoxyphenyl)-2-(2,2,4-trimethylpyrrolidin-1-yl)pyridine-3-carboxamide], the EC30 entry was “+++ (“+++” means <3 uM)”.

With `CC(C)COc1cc(F)cc(-c2ccc(C(=O)NS(=O)(=O)c3cccc(N)c3)c(N3CC(C)CC3(C)C)n2)c1` (stereo not drawn) [Compound 1184, N-(3-aminophenyl)sulfonyl-6-(3-fluoro-5-isobutoxy-phenyl)-2-(2,2,4-trimethylpyrrolidin-1-yl)pyridine-3-carboxamide], the EC30 entry is recorded as “+++ (“+++” means <3 uM)”.

On to `CC(C)Oc1ccc(-c2ccc(C(=O)NS(=O)(=O)c3cccc(N)n3)c(N3CCCC3C3CC3)n2)cn1` (stereo not drawn) [Compound 928, N-[(6-amino-2-pyridyl)sulfonyl]-2-(2-cyclopropylpyrrolidin-1-yl)-6-(6-isopropoxy-3-pyridyl)pyridine-3-carboxamide], for which the EC30 result was “+++ (“+++” means <3 uM)”.

For `CC(C)COc1cc(F)cc(-c2ccc(C(=O)NS(=O)(=O)c3cccc(N)n3)c(N3CC4C5CCC(C5)C43)n2)c1` (stereo not drawn) [Compound 1821, N-[(6-amino-2-pyridyl)sulfonyl]-6-(3-fluoro-5-isobutoxy-phenyl)-2-BLAHyl-pyridine-3-carboxamide], the EC30 result was “+++ (“+++” means <3 uM)”.

Take `CCOC1CCN(c2nc(C(C)(C)C)ccc2C(=O)NS(=O)(=O)c2cccc(N)n2)CC1` [Compound 1200, N-[(6-amino-2-pyridyl)sulfonyl]-6-tert-butyl-2-(4-ethoxy-1-piperidyl)pyridine-3-carboxamide]: the EC30 entry is “++ (“++” means between 3 uM and 10 uM)”.

As for `CC1CN(c2nc(-c3ccnc(C(C)C)c3)ccc2C(=O)NS(=O)(=O)c2cccc(N)n2)C(C)(C)C1` (stereo not drawn) [Compound 1262, N-[(6-amino-2-pyridyl)sulfonyl]-6-(2-isopropyl-4-pyridyl)-2-(2,2,4-trimethylpyrrolidin-1-yl)pyridine-3-carboxamide], the EC30 entry was “++ (“++” means between 3 uM and 10 uM)”.

Values taken from patent US10758534B2 (Vertex Pharmaceuticals Incorporated, priority 2014, dated 2020).
